From patent publication US5104854A (priority 1991, dated 1992)
pIC50: −log10 of the molar value. Read-outs that look alike come from different tables or passages of the source. Residues, ends and D or L forms follow the SMILES beside them. No end group written: not given here.

Legend:
[1] = system: viral ribonucleoprotein particles (RNP)
[2] = system: A/WSN strain of influenza virus; type: cell-based
[3] = system: vesicular stomatitis virus; type: cell-based
[4] = system: viral nucleoprotein and matrix protein; type: cell-based, influenza virus
uninfected cells = settings: tissue culture cells
[5] = system: intracellular virus protein synthesis; type: cell-based, Sindbis virus; settings: peptide 0.1 mg/ml
Semliki Forest virus = settings: 4 h, 1 mg/ml

Sequence of viral ribonucleoprotein particles (RNP) (P15682 whole entry): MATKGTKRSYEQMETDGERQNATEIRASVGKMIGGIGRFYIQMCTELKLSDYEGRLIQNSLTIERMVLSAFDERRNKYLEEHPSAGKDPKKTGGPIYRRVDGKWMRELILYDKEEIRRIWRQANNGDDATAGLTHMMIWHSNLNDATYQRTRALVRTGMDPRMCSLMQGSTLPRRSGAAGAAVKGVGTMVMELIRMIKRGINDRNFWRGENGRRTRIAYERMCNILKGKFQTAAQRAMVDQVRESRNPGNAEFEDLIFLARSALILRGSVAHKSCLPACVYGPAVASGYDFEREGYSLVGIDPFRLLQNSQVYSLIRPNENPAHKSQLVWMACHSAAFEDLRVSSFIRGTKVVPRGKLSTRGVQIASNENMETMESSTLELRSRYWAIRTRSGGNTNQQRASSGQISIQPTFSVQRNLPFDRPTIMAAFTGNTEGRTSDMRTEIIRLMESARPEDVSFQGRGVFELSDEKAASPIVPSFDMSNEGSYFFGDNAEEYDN

## N-G-S-L-Q-C-R-I-C-I-NH2 (NGSLQCRICI-NH2; cysteine pairing not given here) [HA2 (213-222)]
[1]
  nucleoprotein in the RNP peak, % of the total cytoplasmic nucleoprotein: 19%
[2]
  half-maximal dose, inhibition of virus particle secretion: less than 50 μg/ml
[2]; 150 μg/ml peptide (RNP test)
  inhibition of release of influenza virus particles: 70%
[2]; 200 μg/ml
  inhibition of release of influenza virus: 90%
[2]; 250 μg/ml (225 μM)
  block of virus particle secretion: > 90%
[2]; read-out: half-maximal dose, inhibition of virus particle secretion
  pIC50: > 4.35
[3]; 200 μg/ml
  block of release of vesicular stomatitis virus: 15%
[4]; increasing amounts of peptide
  changes in synthesis of intracellular viral nucleoprotein and matrix protein: No significant changes
[4]; peptide level 20 μg/ml
  Incorporation (% of control): 110 +/-12 % of control
[4]; peptide level 50 μg/ml
  Incorporation (% of control): 108 +/-12 % of control
[4]; peptide level 100 μg/ml
  Incorporation (% of control): 94 +/-9 % of control
[4]; peptide level 200 μg/ml
  Incorporation (% of control): 83 % of control
[4]; peptide level 250 μg/ml
  Incorporation (% of control): 97 % of control
Sindbis virus; 200 μg/ml
  block in the release of Sindbis virus: no block

## CCCCCCCC(=O)N[C@@H](CC(C)C)C(=O)N[C@H](C(=O)N1CCC[C@H]1C(=O)N[C@@H](Cc1ccc(O)cc1)C(=O)N[C@@H](C)C(=O)N[C@@H](CC(C)C)C(=O)N[C@@H](C)C(N)=O)[C@@H](C)O [OCTANOYLATED HEPTAPEPTIDE L-T-P-Y-A-L-A, L-T-P-Y-A-L-A] (HELM PEPTIDE1{[CCCCCCCC(=O)[*:2]].L.T.P.Y.A.L.A.[am]}$$$$V2.0)
Uninfected cells
  effect on uninfected cells: no effect
[2]
  effect on cells infected with influenza: no effect
[3]
  effect on cells infected with vesicular stomatitis virus: no effect
  inhibition of vesicular stomatitis virus formation and secretion: no inhibition
[5]
  inhibition of intracellular virus protein synthesis: no inhibition
Sindbis virus
  increase of inhibitory potency by addition of an octanoyl group: 10 fold

## N-G-S-L-Q-C-R-I (NGSLQCRI) [8 amino acid peptide lacking the two carboxy-terminal amino acids of HA2 (213-222)]
[2]; specificity tests, E2 (391-399) at 1 mg/ml in FIG. 2
  inhibition of influenza virus release: non-inhibitory

## LTPYAL-NH2 [HEXAPEPTIDE L-T-P-Y-A-L, L-T-P-Y-A-L]
Semliki Forest virus
  Degree of Inhibition: 36%
